US9981908B2, “Amino acid derivatives” (priority 2013, dated 2018)
Read-outs that look alike come from different tables or passages of the source.

Target: T1, pylRS/tRNA pair (Methanosarcina mazei, UniProt Q8PWY1, Y384F)
T1 construct: expressed in transfected cells; host or cells: HEK293 cells stably expressing pylRS
Format: cell-based
Conditions: HEK293 cells stably expressing pylRS, nnAAs at 2 mM for 2-3 days; for incorporation in the GFP reporter gene (green cells) / MFI: tRNApyl and GFPY40 reporter; for Positive GFP Assay: transfected with tRNApyl and GFPY40 reporter, visual inspection under the microscope; for MFI: GFP fluorescence by flow cytometry, geometric mean of the fluorescent cells
Description: An in vitro cell based assay was developed to assess the compatibility of the pylRS/tRNA pair and the pyrrolysine analogs of the present invention (nnAAs) by and the efficiency of nnAAs integration into a target protein. For this, HEK293 cells stably expressing pylRS (SEQ ID NO 4) were transiently transfected with plasmids for the expression of tRNApyl (SEQ ID NO 7) and a reporter construct encoding GFPY40 (containing amber codon in place of tyrosine at amino acid residue number 40 (where 1 is the initiator methionine)) (SEQ ID NOs 10 and 11) using standard transfection protocols. Transfected cells were incubated with nnAAs at 2 mM for 2-3 days GFP production was analyzed qualitatively by visual inspection under the microscope. The GFP fluorescence was quantified by flow cytometry using an Accuri flow cytometer and the geometric mean of the fluorescent cells determined.
This cell based assay was used to determine whether the different nnAAs were suitable substrates for the pylRS and allowed its translation into a target protein. Cells expressing the PylRS/tRNApyl pair and containing a vector encoding the GFPY40 reporter gene were incubated in the presence of the nnAAs. nnAAs that are readily utilized by the PylRS/tRNApyl pair support the translation of the nnAA into the amber site of GFP and allow read-through of the gene producing full length GFP (fluorescent protein). The fluorescence intensity of the cells depends on the efficiency of nnAA incorporation. Thus, nnAAs that are poorly utilized produce weakly fluorescent or non-fluorescing cells. […] Furthermore, the relative expression levels in each sample was compared to those generated by substrates known to be efficiently utilized by pylRS.

T1 sequence (Q8PWY1 whole entry Y384F): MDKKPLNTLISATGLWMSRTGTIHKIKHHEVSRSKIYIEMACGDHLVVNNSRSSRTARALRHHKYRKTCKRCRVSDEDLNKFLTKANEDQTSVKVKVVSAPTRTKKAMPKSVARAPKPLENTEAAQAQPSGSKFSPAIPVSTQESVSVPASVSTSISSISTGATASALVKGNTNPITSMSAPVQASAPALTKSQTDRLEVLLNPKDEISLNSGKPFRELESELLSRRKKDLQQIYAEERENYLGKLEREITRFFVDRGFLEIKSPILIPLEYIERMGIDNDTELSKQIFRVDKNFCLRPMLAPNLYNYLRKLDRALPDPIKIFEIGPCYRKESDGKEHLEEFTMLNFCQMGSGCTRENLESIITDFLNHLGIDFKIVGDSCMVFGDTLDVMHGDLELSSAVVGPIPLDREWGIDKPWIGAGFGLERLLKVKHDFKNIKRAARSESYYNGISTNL

Structure (SMILES)	incorporation in the GFP reporter gene (green cells)	Positive GFP Assay	further results
[N-]=[N+]=NCCOC(=O)NCCSCC(N)C(=O)O (stereo in doubt) [Formula III.1, (2S)-2-amino-3-[(2-{[(2-azidoethoxy)carbonyl]amino}ethyl)sulfanyl]propanoic acid]	incorporated in the GFP reporter gene and yield green cells	Yes	–
C#CCOC(=O)NCCSCC(N)C(=O)O (stereo in doubt) [Formula III.2, (2S)-2-amino-3-[(2-{[(prop-2-yn-1-yloxy)carbonyl]amino}ethyl)sulfanyl]propanoic acid]	incorporated in the GFP reporter gene and yield green cells	Yes	–
C=CCOC(=O)NCCSCC(N)C(=O)O (stereo in doubt) [Formula III.3, (2S)-2-amino-3-[(2-{[(prop-2-en-1-yloxy)carbonyl]amino}ethyl)sulfanyl]propanoic acid]	incorporated in the GFP reporter gene and yield green cells	Yes	–
C=CCNC(=O)CCCSCC(N)C(=O)O (stereo in doubt) [Formula III.12, (2S)-2-amino-3-({3-[(prop-2-en-1-yl)carbamoyl]propyl}sulfanyl)propanoic acid]	incorporated in the GFP reporter gene and yield green cells	Yes	–
[N-]=[N+]=NCCNC(=O)CCCSCC(N)C(=O)O (stereo in doubt) [Formula III.13, (2S)-2-amino-3-({3-[(2-azidoethyl)carbamoyl]propyl}sulfanyl)propanoic acid]	incorporated in the GFP reporter gene and yield green cells	Yes	–
[N-]=[N+]=NCCOC(=O)NCCCC[C@H](N)C(=O)O [Formula IA.1, (2S)-2-amino-6-{[(2-azidoethoxy)carbonyl]amino}hexanoic acid]	–	Yes	MFI: 931,289; MFI (listed as 1A.1): 931289
C#CCOC(=O)NCCCC[C@H](N)C(=O)O [Formula IA.2, (2S)-2-amino-6-{[(prop-2-yn-1-yloxy)carbonyl]amino}hexanoic acid]	–	Yes	MFI: 1,676,250; MFI (listed as 1A.2): 1676250
C=CCOC(=O)NCCCC[C@H](N)C(=O)O [Formula IA.3, (2S)-2-amino-6-{[(prop-2-en-1-yloxy)carbonyl]amino}hexanoic acid]	–	Yes	MFI: 2,250,000; MFI (listed as 1A.3): 2250000
[N-]=[N+]=NCCNC(=O)NCCCC[C@H](N)C(=O)O [Formula IA.4, (2S)-2-amino-6-{[(2-azidoethyl)carbamoyl]amino}hexanoic acid]	incorporated in the GFP reporter gene and yield green cells	Yes	MFI: 254250
C=CCNC(=O)NCCCC[C@H](N)C(=O)O [Formula IA.5, (2S)-2-amino-6-{[(prop-2-en-1-yl)carbamoyl]amino}hexanoic acid]	incorporated in the GFP reporter gene and yield green cells	–	–
[N-]=[N+]=NCCOC(=O)NCC(=O)NC[C@H](N)C(=O)O [Formula V.1, (2S)-2-amino-3-(2-{[(2-azidoethoxy)carbonyl]amino}acetamido)propanoic acid]	incorporated in the GFP reporter gene and yield green cells	Yes	–
C#CCOC(=O)NCC(=O)NC[C@H](N)C(=O)O [Formula V.2, (2S)-2-amino-3-(2-{[(prop-2-yn-1-yloxy)carbonyl]amino}acetamido)propanoic acid]	incorporated in the GFP reporter gene and yield green cells	–	–
C=CCOC(=O)NCC(=O)NC[C@H](N)C(=O)O [Formula V.3, (2S)-2-amino-3-(2-{[(prop-2-en-1-yloxy)carbonyl]amino}acetamido)propanoic acid]	incorporated in the GFP reporter gene and yield green cells	Yes	–
CCCC(N=[N+]=[N-])C(=O)NCCCC[C@H](N)C(=O)O (stereo partly drawn) [Formula VII.1, (2S)-2-amino-6-(2-azidopentanamido)hexanoic acid]	incorporated in the GFP reporter gene and yield green cells	Yes	–
C=CCOC(=O)NC(CCN=[N+]=[N-])C(=O)NC[C@H](N)C(=O)O (stereo partly drawn) [Formula VIII.1, (2S)-2-amino-3-(4-azido-2-{[(prop-2-en-1-yloxy)carbonyl]amino}butanamido)propanoic acid]	–	Yes	–
